Laboratory results taken from ChEMBL document CHEMBL2385027, “Evaluation of 2'-α-fluorine modified nucleoside phosphonates as potential inhibitors of HCV polymerase” (Bioorg Med Chem Lett, 2013).
pEC50, pIC50: −log10 of the molar value.

Key:
Hepatitis C virus [1] = assay: Antiviral activity against Hepatitis C virus infected in human Huh7 cells assessed as inhibition of HCV replication; assay type: functional, organism-based, Hepacivirus hominis; settings: Huh-7
[2] = Cytotoxicity against human HuH7 cells; assay type: cell-based, Huh-7
[3] = Cytostatic activity against human MT4 cells; assay type: cell-based
Hepatitis C virus [4] = assay: Inhibition of HCV 1b NS5b polymerase; parameters: species or system Hepatitis C virus subtype 1b

pEC50 (Hepatitis C virus [1])	SMILES	CC50 [2]	CC50 [3]	pIC50 (Hepatitis C virus [4])
3.87	Nc1ncnc2c1ncn2[C@@H]1O[C@H](COP(=O)(O)O)[C@@H](O)[C@H]1F	> 250 µM	–	–
< 3.60	O=c1ccn([C@@H]2O[C@H](COP(=O)(O)O)[C@@H](O)[C@H]2F)c(=O)[nH]1	> 250 µM	–	–
4.82	Nc1ccn([C@@H]2O[C@H](COP(=O)(O)O)[C@@H](O)[C@H]2F)c(=O)n1	> 250 µM	–	–
4.24	CCCCOC(=O)[C@H](C)NP(=O)(/C=C/[C@H]1O[C@@H](n2cnc3c(N)ncnc32)[C@H](F)[C@@H]1O)N[C@@H](C)C(=O)OCCCC	113 µM	18 µM	–
4.84	CCCCOC(=O)[C@H](C)NP(=O)(/C=C/[C@H]1O[C@@H](n2ccc(=O)[nH]c2=O)[C@H](F)[C@@H]1O)N[C@@H](C)C(=O)OCCCC	> 250 µM	92 µM	–
3.87	CCCCOC(=O)[C@H](C)NP(=O)(/C=C/[C@H]1O[C@@H](n2ccc(N)nc2=O)[C@H](F)[C@@H]1O)N[C@@H](C)C(=O)OCCCC	> 250 µM	> 250 µM	–
4.96	CCCCOC(=O)[C@H](C)NP(=O)(CC[C@H]1O[C@@H](n2cnc3c(N)ncnc32)[C@H](F)[C@@H]1O)N[C@@H](C)C(=O)OCCCC	24 µM	36 µM	–
–	O=c1ccn([C@@H]2O[C@H](CO)[C@@H](O)[C@H]2F)c(=O)[nH]1	–	–	4.89
–	Nc1ncnc2c1ncn2[C@@H]1O[C@H](/C=C/P(=O)(O)O)[C@@H](O)[C@H]1F [listing 2 of 2 here]	–	–	5.68
–	O=c1ccn([C@@H]2O[C@H](/C=C/P(=O)(O)O)[C@@H](O)[C@H]2F)c(=O)[nH]1 [listing 2 of 2 here]	–	–	4.51
–	Nc1ccn([C@@H]2O[C@H](/C=C/P(=O)(O)O)[C@@H](O)[C@H]2F)c(=O)n1 [listing 2 of 2 here]	–	–	5.72
–	Nc1ncnc2c1ncn2[C@@H]1O[C@H](CCP(=O)(O)O)[C@@H](O)[C@H]1F [listing 2 of 2 here]	–	–	5.34
–	Nc1ccn([C@@H]2O[C@H](CO)[C@@H](O)[C@H]2F)c(=O)n1	–	–	5.73
–	Nc1ncnc2c1ncn2[C@@H]1O[C@H](CO)[C@@H](O)[C@H]1F [2'-BETA-FLUORO-2',3'-DEOXYADENOSINE]	–	–	3.99

SMILES	pEC50 (Hepatitis C virus [1])	CC50 [2]	CC50 [3]	pIC50 (Hepatitis C virus [4])
Nc1ncnc2c1ncn2[C@@H]1O[C@H](/C=C/P(=O)(O)O)[C@@H](O)[C@H]1F [listing 1 of 2 here]	3.88	> 250 µM	–	–
O=c1ccn([C@@H]2O[C@H](/C=C/P(=O)(O)O)[C@@H](O)[C@H]2F)c(=O)[nH]1 [listing 1 of 2 here]	< 3.60	> 250 µM	–	–
Nc1ccn([C@@H]2O[C@H](/C=C/P(=O)(O)O)[C@@H](O)[C@H]2F)c(=O)n1 [listing 1 of 2 here]	4.12	> 250 µM	–	–
Nc1ncnc2c1ncn2[C@@H]1O[C@H](CCP(=O)(O)O)[C@@H](O)[C@H]1F [listing 1 of 2 here]	< 3.30	> 500 µM	–	–
